# In patent US20070244165A1, “Method for Identifying and Producing Effectors of Calmodulin-Dependent Peptidyl-Prolyl Cis/Trans Isomers” (MAX-PLANK-GESELLSCHAFT ZUR FORDERUNG, priority 2004, published 2007):
# Molecular target: T1, human CaMAP FKBP38 (Homo sapiens, UniProt Q14318)
# T1 construct: made in house; host or cells: E. coli Rosetta cells (pET28a)
# Assay: Inhibition of PPIase activity of calmodulin-activated CaMAP FKBP38 (isomer-specific proteolysis with chymotrypsin)
# Type: biochemical
# Settings: 0.5 μM FKBP38, 0.5 μM calmodulin, 5 mM calcium chloride; substrate Suc-Ala-Phe-Pro-Phe-NHNp; read-out: IC50 value (inhibitor concentration against detected enzyme activity)
# Procedure: The human CaMAP FKBP38 (synonyms: FKBP8_HUMAN; Swiss-Prot-No.: Q14318) was produced molecular-biologically, as described in Example 9, and stored in aliquots of 100 μl with a protein concentration of 0.83 mg/ml at −80° C. Just before measuring the activity, one of these aliquots was thawed and subsequently stored at 4° C. Furthermore, commercially available calmodulin isolated from bovine brain (Sigma; purchase order no.: P2277), which had been stored at −80° C., was thawed just before measuring the activity and stored at 4° C. Suc-Ala-Phe-Pro-Phe-pNA (Bachem; purchase order no.: L-1400) was used as CaMAP substrate. Alpha-chymotrypsin isolated from bovine pancreas (Merck KG; purchase order no.: 102307) was used as isomer specific auxiliary enzyme. The following working solutions were prepared just before measuring and stored at 4° C.: • solution A: 55 mM HEPES buffer, pH 7.8; 1 mM DTT, 0.5% glycerol • solution B: 20 mg of the peptide substrate dissolved in 1 ml DMSO • solution C: 20 mg chymotrypsin dissolved in 200 μl of solution A • solution D: FKBP38 ([…], diluted in solution A) • solution E: calmodulin (300 μM, diluted in solution A) • solution F: calcium chloride (1 M in solution A)
# For the kinetic determination of CaMAP activity, a computer assisted diode-array spectrometer (Hewlett Packard) with a cuvette temperature of 4° C. is used. […]
compound,measurement,value
C=CC[C@@H]1/C=C(\C)C[C@H](C)C[C@H](OC)[C@H]2O[C@@](O)(C(=O)C(=O)N3CCCC[C@H]3C(=O)O[C@H](/C(C)=C/[C@@H]3CC[C@@H](O)[C@H](OC)C3)[C@H](C)[C@@H](O)CC1=O)[C@H](C)C[C@@H]2OC [FK506],IC50,~4.3 µM
